PMC7101356, “Cross-site and cross-platform variability of automated patch clamp assessments of drug effects on human cardiac currents in recombinant cells” (Scientific Reports, 2020)
Like-named read-outs stand apart in the source and are kept apart here.

Columns and labels:
[1] = biological target: T1, peak hNav1.5 (Homo sapiens, UniProt Q14524); experiment: Automated patch clamp, peak hNav1.5 current block; type: cell-based
T1 construct: expressed in transfected cells; host or cells: HEK293 or CHO, depending on site

[2] = biological target: T2, late hNav1.5 (Homo sapiens, UniProt Q14524); experiment: Automated patch clamp, late hNav1.5 current block (ATX-II activated); type: cell-based
T2 construct: expressed in transfected cells; host or cells: HEK293 or CHO, depending on site
Description: However, all external solutions contained 30 nM ATX-II in order to activate late current. Late current was measured at its maximum during the repolarizing ramp.
Concentration-response relationships for each test article were independently investigated, i.e., each cell received only one test article, typically evaluating multiple concentrations in a cumulative fashion (lowest to highest concentrations). However, some platforms tested only one concentration per well. Each concentration response was based on a minimum of four concentrations, with a minimum of three wells used for each concentration. In cases of high variability, more cells per concentration were recorded. Prior to drug addition, cells received an addition of vehicle to measure non-test article-related effects such as addition artifacts. At the end of the experiment, a supramaximal concentration of a known inhibitory reference compound was applied to assess leak current and appropriate responsiveness of the test system.
(§1) The steady state current at each concentration was used to determine the concentration-response relationships. Mean concentration-response data were fitted to a standard sigmoidal four-parameter logistic equation (GraphPad Prism 7; GraphPad Inc., La Jolla, CA) of the form: Y=Bottom+(Top−Bottom)/(1+10^∧(LogIC50−X)∗HillSlope) where Y is the current inhibition (in % of pre-drug control), X is the logarithm of drug concentration, and IC50 is the drug concentration producing half-maximal current inhibition. Curve fitting was performed using the following constraints: Top = 100%, Bottom = 0%, Hill Slope <2. No curve fitting was performed in cases with an obvious lack of a concentration-dependent current inhibition and/or small effect size (approximately ≤20%).

[3] = based on CiPA evaluations; cited from earlier work
[4] = biological target: hCav1.2 (Homo sapiens, UniProt Q13936); experiment: Automated patch clamp, hCav1.2 current block
Sequence of hCav1.2 (Q13936 whole entry): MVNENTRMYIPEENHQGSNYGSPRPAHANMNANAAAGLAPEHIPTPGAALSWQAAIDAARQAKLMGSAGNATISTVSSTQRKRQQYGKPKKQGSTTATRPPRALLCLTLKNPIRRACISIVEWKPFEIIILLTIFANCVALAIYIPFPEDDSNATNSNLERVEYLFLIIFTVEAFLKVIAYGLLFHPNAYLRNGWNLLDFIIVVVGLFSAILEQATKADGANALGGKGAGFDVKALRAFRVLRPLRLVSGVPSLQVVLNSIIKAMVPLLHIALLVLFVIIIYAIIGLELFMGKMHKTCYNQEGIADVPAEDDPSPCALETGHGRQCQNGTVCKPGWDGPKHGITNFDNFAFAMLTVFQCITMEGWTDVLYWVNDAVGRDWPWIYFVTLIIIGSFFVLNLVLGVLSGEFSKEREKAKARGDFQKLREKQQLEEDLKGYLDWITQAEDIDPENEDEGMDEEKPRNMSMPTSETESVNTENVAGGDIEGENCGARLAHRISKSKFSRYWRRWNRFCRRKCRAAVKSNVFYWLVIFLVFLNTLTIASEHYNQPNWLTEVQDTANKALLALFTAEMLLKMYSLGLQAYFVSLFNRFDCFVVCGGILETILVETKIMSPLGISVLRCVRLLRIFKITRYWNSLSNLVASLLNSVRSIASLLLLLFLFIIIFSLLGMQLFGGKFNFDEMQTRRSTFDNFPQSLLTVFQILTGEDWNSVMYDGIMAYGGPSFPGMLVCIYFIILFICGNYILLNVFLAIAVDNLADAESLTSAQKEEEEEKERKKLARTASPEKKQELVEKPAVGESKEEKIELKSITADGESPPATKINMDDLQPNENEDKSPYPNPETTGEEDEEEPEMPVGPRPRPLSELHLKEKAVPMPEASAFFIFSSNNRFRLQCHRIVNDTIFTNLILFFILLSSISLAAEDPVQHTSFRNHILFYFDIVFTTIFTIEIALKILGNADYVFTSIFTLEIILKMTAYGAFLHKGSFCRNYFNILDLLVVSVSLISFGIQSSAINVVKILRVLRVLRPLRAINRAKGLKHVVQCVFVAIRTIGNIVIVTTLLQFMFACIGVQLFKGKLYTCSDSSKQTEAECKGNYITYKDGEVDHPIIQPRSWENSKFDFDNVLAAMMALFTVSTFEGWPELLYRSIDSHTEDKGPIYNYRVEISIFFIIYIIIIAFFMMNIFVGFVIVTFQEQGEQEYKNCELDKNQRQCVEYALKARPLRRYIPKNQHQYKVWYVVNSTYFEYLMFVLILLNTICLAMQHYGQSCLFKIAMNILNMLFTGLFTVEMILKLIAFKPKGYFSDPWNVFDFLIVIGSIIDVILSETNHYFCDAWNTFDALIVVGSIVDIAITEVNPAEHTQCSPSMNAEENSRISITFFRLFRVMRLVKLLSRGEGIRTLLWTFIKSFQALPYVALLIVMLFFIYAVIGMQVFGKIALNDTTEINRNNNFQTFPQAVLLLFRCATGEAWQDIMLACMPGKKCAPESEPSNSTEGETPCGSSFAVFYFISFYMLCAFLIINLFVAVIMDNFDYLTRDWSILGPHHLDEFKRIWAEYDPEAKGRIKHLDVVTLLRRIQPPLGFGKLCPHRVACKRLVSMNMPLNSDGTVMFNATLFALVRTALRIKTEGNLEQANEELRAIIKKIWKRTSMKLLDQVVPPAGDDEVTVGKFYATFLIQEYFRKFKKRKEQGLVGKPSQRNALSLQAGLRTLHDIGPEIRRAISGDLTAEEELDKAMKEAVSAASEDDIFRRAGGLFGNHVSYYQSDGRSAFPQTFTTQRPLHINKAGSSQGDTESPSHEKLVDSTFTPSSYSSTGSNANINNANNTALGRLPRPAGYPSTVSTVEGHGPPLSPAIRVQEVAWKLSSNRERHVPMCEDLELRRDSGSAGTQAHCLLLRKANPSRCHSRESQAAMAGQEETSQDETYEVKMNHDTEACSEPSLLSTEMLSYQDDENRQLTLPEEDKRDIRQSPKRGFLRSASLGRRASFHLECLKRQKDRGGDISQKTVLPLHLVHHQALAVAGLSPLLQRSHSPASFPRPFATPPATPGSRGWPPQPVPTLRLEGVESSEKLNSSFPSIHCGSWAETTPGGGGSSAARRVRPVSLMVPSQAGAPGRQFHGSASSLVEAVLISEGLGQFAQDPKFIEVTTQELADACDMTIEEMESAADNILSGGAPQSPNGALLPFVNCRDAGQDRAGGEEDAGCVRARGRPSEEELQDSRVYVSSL
Sequence of hCav1.2 (Q08289 whole entry partner): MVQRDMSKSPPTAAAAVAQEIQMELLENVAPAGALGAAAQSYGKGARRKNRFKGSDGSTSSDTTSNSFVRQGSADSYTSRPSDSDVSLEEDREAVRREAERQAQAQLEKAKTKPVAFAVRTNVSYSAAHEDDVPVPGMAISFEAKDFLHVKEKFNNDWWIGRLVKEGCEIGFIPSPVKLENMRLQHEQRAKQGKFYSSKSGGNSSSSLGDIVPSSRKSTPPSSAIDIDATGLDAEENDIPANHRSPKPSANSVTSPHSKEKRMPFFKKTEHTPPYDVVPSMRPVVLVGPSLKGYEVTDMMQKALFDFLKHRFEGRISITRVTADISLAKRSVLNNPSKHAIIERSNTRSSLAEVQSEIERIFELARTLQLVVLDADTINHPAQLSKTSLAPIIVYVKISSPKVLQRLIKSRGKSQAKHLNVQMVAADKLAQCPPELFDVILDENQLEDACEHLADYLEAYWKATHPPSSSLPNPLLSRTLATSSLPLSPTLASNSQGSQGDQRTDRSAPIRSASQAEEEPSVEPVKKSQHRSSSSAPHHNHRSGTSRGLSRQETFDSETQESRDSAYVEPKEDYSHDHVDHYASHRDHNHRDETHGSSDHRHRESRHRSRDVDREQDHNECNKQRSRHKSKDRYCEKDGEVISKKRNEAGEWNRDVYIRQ
Sequence of hCav1.2 (P54289 25-956 partner limits assumed): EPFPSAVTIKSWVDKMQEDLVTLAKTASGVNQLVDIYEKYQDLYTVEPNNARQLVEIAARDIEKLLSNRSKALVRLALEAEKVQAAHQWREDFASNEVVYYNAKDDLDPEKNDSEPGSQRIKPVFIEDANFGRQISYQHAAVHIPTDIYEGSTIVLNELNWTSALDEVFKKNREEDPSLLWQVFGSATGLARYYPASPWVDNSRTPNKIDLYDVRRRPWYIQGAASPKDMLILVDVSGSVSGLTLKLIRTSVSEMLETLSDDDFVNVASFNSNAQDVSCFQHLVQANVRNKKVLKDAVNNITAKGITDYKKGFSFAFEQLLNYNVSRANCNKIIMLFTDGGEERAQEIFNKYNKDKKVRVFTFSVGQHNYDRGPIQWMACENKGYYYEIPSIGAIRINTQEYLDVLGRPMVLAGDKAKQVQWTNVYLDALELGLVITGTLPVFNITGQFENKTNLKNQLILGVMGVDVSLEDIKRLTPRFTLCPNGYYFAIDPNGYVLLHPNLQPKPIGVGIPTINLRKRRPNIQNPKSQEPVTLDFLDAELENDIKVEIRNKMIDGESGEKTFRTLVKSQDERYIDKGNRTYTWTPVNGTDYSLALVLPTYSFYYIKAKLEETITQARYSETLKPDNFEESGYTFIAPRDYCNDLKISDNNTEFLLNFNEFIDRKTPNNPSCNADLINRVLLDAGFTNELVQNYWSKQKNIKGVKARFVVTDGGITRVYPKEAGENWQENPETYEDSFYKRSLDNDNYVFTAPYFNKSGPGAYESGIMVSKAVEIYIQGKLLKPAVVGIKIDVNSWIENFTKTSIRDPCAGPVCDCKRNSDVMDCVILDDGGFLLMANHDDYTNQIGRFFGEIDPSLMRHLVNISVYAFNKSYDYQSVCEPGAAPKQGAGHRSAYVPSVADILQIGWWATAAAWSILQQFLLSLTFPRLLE
Sequence of hCav1.2 (P54289 957-1103 partner limits assumed): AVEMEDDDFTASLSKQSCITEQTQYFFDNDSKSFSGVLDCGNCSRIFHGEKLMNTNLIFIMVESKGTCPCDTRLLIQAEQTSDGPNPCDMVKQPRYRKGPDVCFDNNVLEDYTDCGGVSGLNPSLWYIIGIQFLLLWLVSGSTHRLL
Description: Peak current was measured during the step to 0 mV. Leak current was measured after applying a saturating concentration of a blocker such as cadmium (200 µM) at the end of each experiment to completely block hCav1.2 current.
Concentration-response relationships for each test article were independently investigated, i.e., each cell received only one test article, typically evaluating multiple concentrations in a cumulative fashion (lowest to highest concentrations). However, some platforms tested only one concentration per well. Each concentration response was based on a minimum of four concentrations, with a minimum of three wells used for each concentration. In cases of high variability, more cells per concentration were recorded. Prior to drug addition, cells received an addition of vehicle to measure non-test article-related effects such as addition artifacts. At the end of the experiment, a supramaximal concentration of a known inhibitory reference compound was applied to assess leak current and appropriate responsiveness of the test system. While it was recommended that a separate group of cells (n ≥ 3) be recorded for each experimental day to determine the baseline response to vehicle and to address day-to-day variability, this was not verified.
These criteria were applied to all APC platforms.
as §1

[5] = biological target: hERG (Homo sapiens, UniProt Q12809); experiment: Automated patch clamp, hERG current block (consensus step-ramp protocol); conditions: human, hERG K+ current inhibition, Mean, 1.00E-08 mol/L
Sequence of hERG (Q12809 whole entry): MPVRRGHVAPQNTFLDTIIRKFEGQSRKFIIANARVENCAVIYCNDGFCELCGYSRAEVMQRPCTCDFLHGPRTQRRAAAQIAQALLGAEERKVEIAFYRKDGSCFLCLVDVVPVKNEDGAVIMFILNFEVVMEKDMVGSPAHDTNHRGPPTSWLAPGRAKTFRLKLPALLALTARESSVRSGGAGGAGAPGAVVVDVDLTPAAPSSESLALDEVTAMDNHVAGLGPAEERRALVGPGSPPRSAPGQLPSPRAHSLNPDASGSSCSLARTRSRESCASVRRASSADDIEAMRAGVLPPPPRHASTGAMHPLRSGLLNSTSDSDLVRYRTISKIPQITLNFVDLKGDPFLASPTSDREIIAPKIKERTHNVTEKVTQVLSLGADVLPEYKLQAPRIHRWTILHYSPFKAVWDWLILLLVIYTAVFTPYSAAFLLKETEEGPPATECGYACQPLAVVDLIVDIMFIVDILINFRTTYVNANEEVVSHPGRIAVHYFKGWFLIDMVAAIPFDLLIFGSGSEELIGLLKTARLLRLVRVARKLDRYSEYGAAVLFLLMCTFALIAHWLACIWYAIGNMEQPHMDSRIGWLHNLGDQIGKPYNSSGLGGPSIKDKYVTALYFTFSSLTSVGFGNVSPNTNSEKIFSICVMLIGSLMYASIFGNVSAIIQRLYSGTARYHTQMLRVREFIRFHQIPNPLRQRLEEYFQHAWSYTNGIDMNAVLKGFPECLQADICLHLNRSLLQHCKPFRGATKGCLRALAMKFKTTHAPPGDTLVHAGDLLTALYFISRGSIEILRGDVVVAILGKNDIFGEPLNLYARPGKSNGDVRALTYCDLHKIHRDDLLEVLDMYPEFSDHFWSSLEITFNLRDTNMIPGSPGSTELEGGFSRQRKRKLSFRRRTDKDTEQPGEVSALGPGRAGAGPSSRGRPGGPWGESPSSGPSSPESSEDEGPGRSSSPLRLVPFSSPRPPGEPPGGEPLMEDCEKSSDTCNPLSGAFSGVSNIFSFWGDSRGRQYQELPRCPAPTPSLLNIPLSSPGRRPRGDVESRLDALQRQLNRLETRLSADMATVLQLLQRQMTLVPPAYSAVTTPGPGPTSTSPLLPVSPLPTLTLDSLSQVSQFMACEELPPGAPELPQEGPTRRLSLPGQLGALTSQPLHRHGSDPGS

[6] = site_platform s06_p4, 1.00E-08 mol/L
[7] = site_platform s06_p4, 3.00E-07 mol/L
[8] = site_platform s07_p6, 1.00E-08 mol/L
[9] = site_platform s07_p6, 3.00E-07 mol/L
[10] = site_platform s13_p2, 1.00E-08 mol/L
[11] = site_platform s13_p2, 3.00E-07 mol/L
[12] = site_platform s14_p1, 1.00E-08 mol/L
[13] = site_platform s14_p1, 3.00E-07 mol/L

## CC(C)COCC(CN(Cc1ccccc1)c1ccccc1)N1CCCC1 (stereo not drawn) [bep, bepridil]
[1]
  IC50: 2450 nM
[1]; site_platform s01_p1
  log IC50, peak hNav1.5 Na+ current inhibition: no inh.
[1]; site_platform s01_p1, 1.00E-08 mol/L
  Peak hNav1.5 Na+ current inhibition, Mean: 27.2%
[1]; site_platform s01_p1, 3.00E-07 mol/L
  Peak hNav1.5 Na+ current inhibition, Mean: 49.4%
[1]; site_platform s02_p2
  log IC50, peak hNav1.5 Na+ current inhibition: no inh.
[1]; site_platform s02_p2, 1.00E-08 mol/L
  Peak hNav1.5 Na+ current inhibition, Mean: 0.5%
[1]; site_platform s02_p2, 3.00E-07 mol/L
  Peak hNav1.5 Na+ current inhibition, Mean: 5.1%
[1]; site_platform s04_p3
  log IC50, peak hNav1.5 Na+ current inhibition: no inh.
[1]; site_platform s04_p3, 1.00E-08 mol/L
  Peak hNav1.5 Na+ current inhibition, Mean: 7.9%
[1]; site_platform s04_p3, 3.00E-07 mol/L
  Peak hNav1.5 Na+ current inhibition, Mean: 13.7%
[1]; site_platform s06_p4
  log IC50, peak hNav1.5 Na+ current inhibition: no inh.
[1]; [6]
  Peak hNav1.5 Na+ current inhibition, Mean: -6.3%
[1]; [7]
  Peak hNav1.5 Na+ current inhibition, Mean: 0.9%
[1]; site_platform s07_p6
  log IC50, peak hNav1.5 Na+ current inhibition: no inh.
[1]; [8]
  Peak hNav1.5 Na+ current inhibition, Mean: -3.3%
[1]; [9]
  Peak hNav1.5 Na+ current inhibition, Mean: -0.6%
[1]; site_platform s10_p3
  nH, Hill slope, peak hNav1.5 inhibition: 0.57
[1]; site_platform s10_p3, 1.00E-08 mol/L
  Peak hNav1.5 Na+ current inhibition, Mean: 3.5%
[1]; site_platform s10_p3, 3.00E-07 mol/L
  Peak hNav1.5 Na+ current inhibition, Mean: 22.0%
[1]; site_platform s10_p3, read-out: log IC50, peak hNav1.5 inhibition (converted)
  IC50: 2690 nM
[1]; site_platform s11_p1
  log IC50, peak hNav1.5 inhibition: no inh.
[1]; site_platform s11_p1, 1.00E-08 mol/L
  Peak hNav1.5 Na+ current inhibition, Mean: 4.3%
[1]; site_platform s11_p1, 3.00E-07 mol/L
  Peak hNav1.5 Na+ current inhibition, Mean: 10.4%
[1]; site_platform s12_p2
  log IC50, peak hNav1.5 inhibition: no inh.
[1]; site_platform s12_p2, 1.00E-08 mol/L
  Peak hNav1.5 Na+ current inhibition, Mean: 0.0%
[1]; site_platform s12_p2, 3.00E-07 mol/L
  Peak hNav1.5 Na+ current inhibition, Mean: 0.0%
[1]; site_platform s13_p2
  log IC50, peak hNav1.5 inhibition: no inh.
[1]; [10]
  Peak hNav1.5 Na+ current inhibition, Mean: 3.2%
[1]; [11]
  Peak hNav1.5 Na+ current inhibition, Mean: 6.7%
[1]; site_platform s14_p1
  nH, Hill slope, peak hNav1.5 inhibition: 0.78
[1]; [12]
  Peak hNav1.5 Na+ current inhibition, Mean: 6.0%
[1]; [13]
  Peak hNav1.5 Na+ current inhibition, Mean: 17.8%
[1]; site_platform s15_p1
  nH, Hill slope, peak hNav1.5 inhibition: 0.68
[1]; site_platform s15_p1, 1.00E-08 mol/L
  Peak hNav1.5 Na+ current inhibition, Mean: 13.5%
[1]; site_platform s15_p1, 3.00E-07 mol/L
  Peak hNav1.5 Na+ current inhibition, Mean: 51.4%
[1]; site_platform s15_p1, read-out: log IC50, peak hNav1.5 inhibition (converted)
  IC50: 324 nM
[1]; site_platform s16_p3
  nH, Hill slope, peak hNav1.5 inhibition: 0.36
[1]; site_platform s16_p3, 1.00E-08 mol/L
  Peak hNav1.5 Na+ current inhibition, Mean: 8.1%
[1]; site_platform s16_p3, 3.00E-07 mol/L
  Peak hNav1.5 Na+ current inhibition, Mean: 26.6%
[1]; site_platform s16_p3, read-out: log IC50, peak hNav1.5 inhibition (converted)
  IC50: 4470 nM
[1]; site_platform s17_p1
  nH, Hill slope, peak hNav1.5 inhibition: 1.09
[1]; site_platform s17_p1, 1.00E-08 mol/L
  Peak hNav1.5 Na+ current inhibition, Mean: 2.7%
[1]; site_platform s17_p1, 3.00E-07 mol/L
  Peak hNav1.5 Na+ current inhibition, Mean: 30.0%
[1]; site_platform s17_p1, read-out: log IC50, peak hNav1.5 inhibition (converted)
  IC50: 676 nM
[1]; site_platform s18_p1
  log IC50, peak hNav1.5 inhibition: no inh.
[1]; site_platform s18_p1, 1.00E-08 mol/L
  Peak hNav1.5 Na+ current inhibition, Mean: 54.7%
[1]; site_platform s18_p1, 3.00E-07 mol/L
  Peak hNav1.5 Na+ current inhibition, Mean: 68.5%
[1]; site_platform s19_p3
  nH, Hill slope, peak hNav1.5 inhibition: 0.50
[1]; site_platform s19_p3, 1.00E-08 mol/L
  Peak hNav1.5 Na+ current inhibition, Mean: 2.2%
[1]; site_platform s19_p3, 3.00E-07 mol/L
  Peak hNav1.5 Na+ current inhibition, Mean: 17.3%
[1]; site_platform s19_p3, read-out: log IC50, peak hNav1.5 inhibition (converted)
  IC50: 6920 nM
[2]; site_platform s06_p4
  nH, Hill slope, late hNav1.5 inhibition: 1.86
[2]; [6]
  Late hNav1.5 Na+ current inhibition, Mean: -0.5%
[2]; [7]
  Late hNav1.5 Na+ current inhibition, Mean: 43.7%
[2]; site_platform s06_p4, read-out: log IC50, late hNav1.5 inhibition (converted)
  IC50: 363 nM
[2]; site_platform s07_p6
  log IC50, late hNav1.5 inhibition: no inh.
[2]; [8]
  Late hNav1.5 Na+ current inhibition, Mean: 5.5%
[2]; [9]
  Late hNav1.5 Na+ current inhibition, Mean: 12.3%
[2]; site_platform s13_p2
  log IC50, late hNav1.5 inhibition: no inh.
[2]; [10]
  Late hNav1.5 Na+ current inhibition, Mean: 24.3%
[2]; [11]
  Late hNav1.5 Na+ current inhibition, Mean: 29.9%
[2]; site_platform s14_p1
  log IC50, late hNav1.5 inhibition: no inh.
[2]; [12]
  Late hNav1.5 Na+ current inhibition, Mean: 54.2%
[2]; [13]
  Late hNav1.5 Na+ current inhibition, Mean: 10.2%
[3]
  TdP Risk Category: High
[4]; site s01_p1, 1.00E-08 mol/L
  Peak hCav1.2 Ca2+ current inhibition, Mean: 5.6%
[4]; site s01_p1, 3.00E-07 mol/L
  Peak hCav1.2 Ca2+ current inhibition, Mean: 16.7%
[4]; site s02_p2, corrected for rundown
  nH, Hill slope: 0.64
[4]; site s02_p2, corrected for rundown, 1.00E-08 mol/L
  Peak hCav1.2 Ca2+ current inhibition, Mean: 4.4%
[4]; site s02_p2, corrected for rundown, 3.00E-07 mol/L
  Peak hCav1.2 Ca2+ current inhibition, Mean: 34.4%
[4]; site s04_p3, 1.00E-08 mol/L
  Peak hCav1.2 Ca2+ current inhibition, Mean: 12.6%
[4]; site s04_p3, 3.00E-07 mol/L
  Peak hCav1.2 Ca2+ current inhibition, Mean: 17.5%
[4]; site s06_p4, 1.00E-08 mol/L
  Peak hCav1.2 Ca2+ current inhibition, Mean: 5.9%
[4]; site s06_p4, 3.00E-07 mol/L
  Peak hCav1.2 Ca2+ current inhibition, Mean: 13.9%
[4]; site s11_p1, 1.00E-08 mol/L
  Peak hCav1.2 Ca2+ current inhibition, Mean: 13.2%
[4]; site s11_p1, 3.00E-07 mol/L
  Peak hCav1.2 Ca2+ current inhibition, Mean: 21.4%
[4]; site s14_p1, 1.00E-08 mol/L
  Peak hCav1.2 Ca2+ current inhibition, Mean: -0.1%
[4]; site s14_p1, 3.00E-07 mol/L
  Peak hCav1.2 Ca2+ current inhibition, Mean: 8.2%
[4]; site s16_p3
  nH, Hill slope: 0.51
[4]; site s16_p3, 1.00E-08 mol/L
  Peak hCav1.2 Ca2+ current inhibition, Mean: 8.6%
[4]; site s16_p3, 3.00E-07 mol/L
  Peak hCav1.2 Ca2+ current inhibition, Mean: 45.8%
[4]; site s18_p1, 1.00E-08 mol/L
  Peak hCav1.2 Ca2+ current inhibition, Mean: 28.2%
[4]; site s18_p1, 3.00E-07 mol/L
  Peak hCav1.2 Ca2+ current inhibition, Mean: 31.3%
[5]; site_platform s07_p5
  inhibition at 1e-08 mol/L: 0.5%
[5]; site_platform s10_p3
  inhibition at 4 min, 1e-08 mol/L: 1.5%
[5]; site_platform s11_p1
  inhibition at 7 min, 1e-08 mol/L: 12%
[5]; site_platform s14_p1
  inhibition at 7 min, 1e-08 mol/L: 41.9%
